Experimental data taken from patent US12202804B2, “In vitro or ex vivo methods for screening a quinoline derivative” (ABIVAX, priority 2014, dated 2025).

What was measured:
[1] = system: miR-124; assay: Modulation of miR-124 expression in PBMCs (qPCR, relative quantification); assay type: cell-based, human; details: for effect on the overexpression of miR-124 in PBMCs: known antiretrovirals, PBMCs from four donors; for Fold-change compared to DMSO treated cells (Relative quantification) Mean / fold induction at 5 µM / fold induction at 10 µM: miR-124 expression, PBMCs of healthy donors; for Fold-change compared to DMSO treated cells (Relative quantification) Mean / fold induction at 10 µM: antiretroviral drugs 10 μM, extraction day 6, 4 donors; for fold induction at 5 µM / fold induction at 10 µM: Homo sapiens, PBMC, 144 h, read-out: Fold-change compared to DMSO treated cells (Relative quantification) Mean; for fold induction at 5 µM: quinoline derivatives 5 μM, extraction day 6, mean over 1 to 7 donors
Description: Briefly, 60-70 mL of buffy-coat are poured in a flask of 175 cm^2, and the volume is adjusted to 300 mL using PBS in order to obtain a dilution of about 5-fold of the buffy coat. […] The lymphocyte ring is recovered from the Falcon™ tube with a transfer pipette (Pastette®) and then washed with PBS using centrifugation for 10 minutes at 290 rcf and at ambient temperature until the supernatant becomes clear.
Cells are incubated for 48 hours at 37° C. under 5% CO2.
Six-well plates are used for the screening. Within each well comprising 3.10^6 cell/4 ml RPMI supplemented with 10% fetal calf serum and 40 U/mL IL-2 (Peprotech Ref 200-02) are added screened molecules. 100% DMSO (4 μL) is added to the well and tested as a negative control.
Each tested condition is set up as described here below and the final corresponding volume is adjusted accordingly in the well: • 1) Quinoline derivatives in 100% DMSO—(5 μM and final volume 4 μL) • 2) Antiretroviral drugs: Maraviroc, Efavirenz, Darunavir, AZT (10 μM for all—final volume 4 μL).
The wells are incubated for three days at 37° C. under 5% CO2 Medium is changed (Day 3) according to standard protocols. Briefly, plates are centrifugated at 290 rcf for 5 minutes and 3 mL of supernatant is removed. 3 mL of RPMI supplemented with 10% fetal calf serum and 40 U/mL IL-2 is then added with 3 μL of a stock solution of screened molecule at 5 mM in 100% DMSO or 3 μL of 100% DMSO as a negative control.
Cells are recovered within Falcon™ tubes of 15 mL, centrifugated at 290 rcf for 5 minutes, and then washed in 10 mL PBS and further centrifugated at 290 rcf for 5 minutes. Cells are then resuspended in 1 mL PBS and counted.
6×10^6 cells are recovered and centrifugated at 290 rcf for 5 minutes.
The miRNA extraction is achieved using the protocol from Macherey Nagel Nucleospin® miRNA extraction kit using an elution volume for RNAs of 50 μL and miRNAs of 30 μL, and further stored at −20° C.
The reverse transcription step is followed for 12 μL of miRNA using the miScript RT II reverse transcription (RT) kit from QIAGEN© using the miScript HiSpec buffer, and further stored at −20° C.
The quantitative PCR step is achieved using the QIAGEN© miScript SYBR® Green PCR kit and miScript Primer Assays according to the manufacturer's protocol.
The reaction is repeated in triplicates in a 384-well plate according to the manufacturer's protocol on a LightCycler® […] Roche Real-Time PCR system. Cycling conditions are also set up according to the manufacturer's protocol: […]

[2] = system: Collagen induced arthritis model; assay: Collagen induced arthritis mouse model; assay type: in vivo, DBA/1 mice
Description: Groups of 9 to -10-week-old DBA/1 mice were immunized intradermally with bovine collagen type II emulsified in a 1:1 proportion with complete Freund's adjuvant. Mice were challenged 21 days after the first immunization and the phenotypic appearance of arthritis was evaluated by monitoring every second day the thickness of each hind paw ankle joint thickness was measured using a dial caliper (0- to 10-mm) test gauge using a thickness gage. Mice were treated daily for two weeks with quinoline derivatives candidates suspended in methylcellulose or methylcellulose (MC) only and the development of the disease was then monitored. Statistical analysis was performed using Mann-Whitney test, asterisk indicates a significant difference ([…]).

[3] = system: (DSS-) induced colitis model; assay: Dextran Sulphate Sodium (DSS-) induced colitis mouse model; assay type: in vivo, C57BL/6 mice
Description: A commonly used mouse model of inflammatory bowel disease is the Dextran Sulphate Sodium (DSS-) induced colitis model. Typical histological changes of acute DSS-colitis are mucin depletion, epithelial degeneration and the eventual destruction of the mucosal barrier which leads to inflammation and colitis.
Three groups of 6-week-old C57BL/6 mice (8 mice each) received DSS administration in the drinking water (2.5%) for 9 days (FIGS. 1-2). Weight loss and water consumption was measured every day. The latter was determined by measuring the volume loss of the drinking water in the respective devices. The mice were treated by gavage with 200 ul of 0.5 MC alone (DSS+MC group) or together with 40 mg/kg of compound 24 (DSS+MC+24 group). At the point when control mice have loosed up to 20% of their weight (DSS), the treatment with DSS is stopped and replaced with drinking water. The other treatments were continued for 21 days.
Three groups of 16-week-old C57BL/6 mice (7 mice each) received 2.5% DSS in drinking water (FIG. 3). The mice were treated by gavage with 200 ul of 0.5 MC alone (DSS+MC group) or together with 40 mg/kg of compound 24 (DSS+MC+24 group). The mice were treated with DSS for 6 days and at the point when control mice have loosed up to 15% of their weight (DSS), all the mice were euthanized and colon were taken for further analyses.
Colons were measured using a ruler and for histological analysis the entire colon was prepared according to the Swiss roll procedure (Whittem el al.; “Murine Colitis Modeling using Dextran Sulfate Sodium (DSS)”, J Vis Exp 2010 (35) 1652) fixed with formaldehyde and embedded in paraffin. 4 μm sections were de-paraffinized and stained with hematoxylin and eosin and analyzed for lesion size and other alterations (FIGS. 4-6). We compared untreated and treated mice during the DSS-cycle with quinoline derivatives suspended in methylcellulose or methylcellulose (MC) only. Statistical analysis was performed using Mann-Whitney test, asterisk indicates a significant difference ([…]), two asterisks indicate a very significant difference ([…])

Row | Compound | fold induction at 5 µM [1] | other results
1 | Cc1cn([C@H]2C[C@H](N=[N+]=[N-])[C@@H](CO)O2)c(=O)[nH]c1=O [AZT, reference compound] |  | effect on the overexpression of miR-124 in PBMCs [1]: none of the known antiretroviral (Maraviroc, Effavirenz, Darunavir or AZT) has any significant effect; Fold-change compared to DMSO treated cells (Relative quantification) Mean [1]: 0.90
2 | Cc1ccnc(Nc2ccc3cccc(Cl)c3n2)c1 [Compound 1] | 32 | 
3 | FC(F)(F)c1ccc(Nc2ccc3cccc(Cl)c3n2)nc1 [Compound 2] | 66.7 | 
4 | Fc1ccc(Nc2ccc3cccc(Cl)c3n2)nc1 [Compound 3] | 48.5 | 
5 | Cc1ccnc(Nc2ccc3cccc(Cl)c3n2)c1N [Compound 4] | 24.4 | 
6 | FC(F)(F)c1ccnc(Nc2ccc3c(OCCN4CCOCC4)ccc(Cl)c3n2)c1 [Compound 5] | 26.8 | 
7 | FC(F)(F)c1ccnc(Nc2ccc3c(OCCN4CCCCC4)ccc(Cl)c3n2)c1 [Compound 6] | 30.9 | 
8 | Nc1ccc(Cl)c2nc(Nc3cc(C(F)(F)F)ccn3)ccc12 [Compound 7] | 7.54 | 
9 | FC(F)(F)c1ccnc(Nc2ccc3c(OCCCN4CCCCC4)ccc(Cl)c3n2)c1 [Compound 8, 8-chloro-5-(3-(piperidin-1-yl)propoxy)-N-(4-(trifluoromethyl)pyridin-2-yl)quinolin-2-amine] | 7.97 | 
10 | FC(F)(F)c1ccnc(Nc2cc(NCCCN3CCCCC3)c3cccc(Cl)c3n2)c1 [Compound 9, 8-chloro-N^4-(3-(piperidin-1-yl)propyl)-N^2-(4-(trifluoromethyl)pyridin-2-yl)quinoline-2,4-diamine] | 112 | 
11 | CN(c1cc(C(F)(F)F)ccn1)c1ccc2cccc(Cl)c2n1 [Compound 10, 8-chloro-N-methyl-N-(4-(trifluoromethyl)pyridin-2-yl)quinolin-2-amine] | 21.1 | 
12 | FC(F)(F)c1ccnc(Nc2cc(NCCN3CCOCC3)c3cccc(Cl)c3n2)c1 [Compound 11, 8-chloro-N^4-(2-morpholinoethyl)-N^2-(4-(trifluoromethyl)pyridin-2-yl)quinoline-2,4-diamine] | 17.4 | 
13 | FC(F)(F)c1ccnc(Nc2ccc3cccc(Cl)c3n2)c1 [Compound 12] | 16.3 | 
14 | COc1ccc(Nc2ccc3cccc(Cl)c3n2)cc1 [Compound 23] | 45.1 | 
15 | FC(F)(F)Oc1ccc(Nc2ccc3cccc(Cl)c3n2)cc1 [Compound 24, 8-chloro-N-[4-(trifluoromethoxy)phenyl]quinolin-2-amine] | 32.5 | swelling of joints ([2]; hind paw ankle joint thickness, MC only treated about 2.2 mm (FIG. 6)): 1.9 mm; mice that displayed signs of inflammation ([2]; treated daily for two weeks, 8 out of 10 MC treated mice developed disease): one out of ten; weight loss in average ([3]; after 5 days of DSS-administration, 40 mg/kg by gavage in MC, MC or untreated mice 10% to 20%): < 1%; alterations in lymphoid organs such as Peyer's Patches ([3]; after two DSS-cycles): decrease of alterations in lymphoid organs such as Peyer's Patches; average size of the lesion area ([3]; colon histology (FIG. 5), versus 8.4 in MC only treated mice): 2.1 mm^2; number of lesions ([3]; colon histology, compared between cohorts (FIG. 4)): comparable number of lesions; water consumption ([3]; drug treated mice, DSS model, 40 mg/kg by gavage): higher water consumption; average size of the lesion area ([3]; mice exposed to two DSS-cycles, vs 12.2 in MC only treated mice): 3.8 mm^2; weight loss during the second administration of DSS ([3]; second cycle of DSS, 40 mg/kg by gavage): significantly control weight loss
16 | Nc1cc(OC(F)(F)F)ccc1Nc1ccc2cccc(Cl)c2n1 [Compound 25] | 14.3 | 
17 | Nc1ccc(Cl)c2nc(Nc3ccc(OC(F)(F)F)c(Cl)c3)ccc12 [Compound 26] | 6.13 | 
18 | Cc1cc2c(N)ccc(Cl)c2nc1Nc1ccc(OC(F)(F)F)c(Cl)c1 [Compound 27] | 1.42 | 
19 | CN(c1ccc(OC(F)(F)F)cc1)c1ccc2cccc(Cl)c2n1 [Compound 28, 8-chloro-N-methyl-N-(4-(trifluoromethoxy)phenyl)quinolin-2-amine] | 22.2 | 
20 | FC(F)(F)Oc1ccc(N(CCCN2CCCCC2)c2ccc3cccc(Cl)c3n2)cc1 [Compound 30, 8-chloro-N-(3-(piperidin-1-yl)propyl)-N-(4-(trifluoromethoxy)phenyl)quinolin-2-amine] | 9.88 | 
21 | Clc1cccc2ccc(Nc3cnccn3)nc12 [Compound 45] | 34.2 | 
22 | FC(F)(F)c1ccnc(Oc2ccc3cccc(Cl)c3n2)c1 [Compound 46, 8-chloro-2-((4-(trifluoromethyl)pyridin-2-yl)oxy)quinoline] | 6.23 | 
23 | FC(F)(F)Oc1ccc(Oc2ccc3cccc(Cl)c3n2)cc1 [Compound 48, 8-chloro-2-(4-(trifluoromethoxy)phenoxy)quinoline] | 24 | 
24 | CC(C)CN(C[C@@H](O)[C@H](Cc1ccccc1)NC(=O)O[C@H]1CO[C@H]2OCC[C@H]21)S(=O)(=O)c1ccc(N)cc1 [Darunavir, reference compound] |  | fold induction at 10 µM [1]: 1.08; effect on the overexpression of miR-124 in PBMCs [1]: none of the known antiretroviral (Maraviroc, Effavirenz, Darunavir or AZT) has any significant effect
25 | O=C1Nc2ccc(Cl)cc2[C@@](C#CC2CC2)(C(F)(F)F)O1 [Effavirenz, Efavirenz, reference compound] |  | fold induction at 10 µM [1]: 0.46; effect on the overexpression of miR-124 in PBMCs [1]: none of the known antiretroviral (Maraviroc, Effavirenz, Darunavir or AZT) has any significant effect
26 | Maraviroc [reference compound] |  | effect on the overexpression of miR-124 in PBMCs [1]: none of the known antiretroviral (Maraviroc, Effavirenz, Darunavir or AZT) has any significant effect; Fold-change compared to DMSO treated cells (Relative quantification) Mean [1]: 0.73
